Reference: patent US20030203966A1, “Nitromethylthiobenzene derivatives as aldose reductase inhihibitors” (priority 1996, published 2003)

Columns and labels:
aldose reductase = biological target: T1, aldose reductase (Rattus norvegicus, UniProt P07943); assay: In vitro study: inhibition of aldose reductase; format: biochemical, male Wistar rats (lenses); details: enzyme from rat lenses; NADPH, L-glyceraldehyde; spectrophotometry at 340 nm
T1 construct: The aldose reductase used is obtained from the lenses of male Wistar rats; from tissue; host or cells: lenses of male Wistar rats
Method: 1) In vitro study: inhibition of aldose reductase
The aldose reductase used is obtained from the lenses of male Wistar rats according to a modification of the method by S. Hayman et al. (Journal of Biological Chemistry 240, p. 877, 1965). The enzymatic extract is diluted in a phosphate buffer in the presence of NADPH and various concentrations of the test products. The reaction is triggered with L-glyceraldehyde and the rate of reaction is measured by monitoring the disappearance of the NADPH by spectrophotometry at 340 nm. The rate of reaction is calculated for each concentration of products, and the concentration required for a 50% reduction in the rate of reaction (IC50) is then evaluated by linear interpolation.

[1] = test system: level of sorbitol in the sciatic nerves; assay: In vivo study: reduction of the accumulation of sorbitol; parameters: species or system male Wistar rats; details: Rattus norvegicus, po; 5 mg/kg/day p.o.; streptozotocin-diabetic rats; sciatic nerve sorbitol, relative to diabetic and non-diabetic animals; read-out: Protection against the increase in sorbitol (%) (5 mg/kg/day p.o.)
Method: 2) In vivo study: reduction of the accumulation of sorbitol
Male Wistar rats weighing from 200 to 250 g are made diabetic by intravenous injection of streptozotocin (60 mg/kg). They then receive an oral treatment of the test products, in the form of a suspension, 4 hours, 30 hours and 52 hours after the injection of streptozotocin. 18 hours after the final oral treatment, the rats are sacrificed and decapitated and their sciatic nerves are then removed. After extraction, the level of sorbitol in the nerves is measured, according to the enzymatic method described by H. J. Bergmeyer (Methods of enzymatic analysis, H. U. Bergmeyer ed., Academic Press New York 3, p. 1323, 1974). The percentage of protection is calculated for each product relative to the batch of diabetic animals, taking into account the level of sorbitol in the sciatic nerves of non-diabetic rats.

SMILES | melting point [°C] | IC50 (aldose reductase) [nM] | inhibition in vivo at 5 mg/kg [1] [%]
Cc1cc(NS(=O)(=O)c2cccc(F)c2)cc(C)c1S(=O)(=O)C[N+](=O)[O-] [Example 25, N-[3,5-Dimethyl-4-[(nitromethyl)sulphonyl]phenyl]-3-fluorobenzenesulphonamide] | 135 to 137 | 7 | 85
Cc1cc(NS(=O)(=O)c2cc(F)cc(F)c2)cc(C)c1S(=O)(=O)C[N+](=O)[O-] [Example 30, 3,5-Difluoro-N-[3,5-dimethyl-4-[(nitromethyl)sulphonyl]phenyl]benzenesulphonamide] | 187 to 190 | 8 | 87
Cc1cc(NS(=O)(=O)c2ccc(F)c(F)c2)cc(C)c1S(=O)(=O)C[N+](=O)[O-] [Example 10, 3,4-Difluoro-N-[3,5-dimethyl-4-[(nitromethyl)sulphonyl]phenyl]benzenesulphonamide] | 158 to 160 | 7 | 66
Cc1cc(NS(=O)(=O)c2ccc(F)cc2)cc(C)c1S(=O)(=O)C[N+](=O)[O-] [Example 24, N-[3,5-Dimethyl-4-[(nitromethyl)sulphonyl]phenyl]-4-fluorobenzenesulphonamide] | 152 to 154 | 8 | 80
Cc1cc(NS(=O)(=O)c2ccccc2C(F)(F)F)cc(C)c1S(=O)(=O)C[N+](=O)[O-] [Example 14, N-[3,5-Dimethyl-4-[(nitromethyl)sulphonyl]phenyl]-2-(trifluoromethyl)benzenesulphonamide] | 171 to 173 | 7 | 70
Cc1cc(NS(=O)(=O)c2ccc(S(C)(=O)=O)cc2)cc(C)c1S(=O)(=O)C[N+](=O)[O-] [Example 18, N-[3,5-Dimethyl-4-[(nitromethyl)sulphonyl]phenyl]-4-(methylsulphonyl)benzenesulphonamide] | 192 to 194 | – | –
Cc1cc(NS(=O)(=O)c2ccccc2)cc(C)c1S(=O)(=O)C[N+](=O)[O-] [Example 1] | 129 to 131 | 8 | 65

More lines, main results first:

melting point [°C] | IC50 (aldose reductase) [nM] | SMILES | inhibition in vivo at 5 mg/kg [1] [%]
166 to 168 | 7 | Cc1cc(NS(=O)(=O)c2cccc(F)c2F)cc(C)c1S(=O)(=O)C[N+](=O)[O-] [Example 29, 2,3-Difluoro-N-[3,5-dimethyl-4-[(nitromethyl)sulphonyl]phenyl]benzenesulphonamide] | 71
156 to 158 | 8 | Cc1cc(NS(=O)(=O)c2cccc(Br)c2)cc(C)c1S(=O)(=O)C[N+](=O)[O-] [Example 13, 3-Bromo-N-[3,5-dimethyl-4-[(nitromethyl)sulphonyl]-phenyl]benzenesulphonamide] | 70
175 to 177 | 9 | Cc1cc(NS(=O)(=O)c2ccccc2F)cc(C)c1S(=O)(=O)C[N+](=O)[O-] [Example 34, N-[3,5-Dimethyl-4-[(nitromethyl)sulphonyl]phenyl]-2-fluorobenzenesulphonamide] | 69
140 to 142 | – | Cc1cc(NS(=O)(=O)c2ccccc2Br)cc(C)c1S(=O)(=O)C[N+](=O)[O-] [Example 17, 2-Bromo-N-[3,5-dimethyl-4-[(nitromethyl)sulphonyl]-phenyl]benzenesulphonamide] | –
170 to 172 | – | Cc1cc(NS(=O)(=O)c2cccc3ccccc23)cc(C)c1S(=O)(=O)C[N+](=O)[O-] [Example 31, N-[3,5-Dimethyl-4-[(nitromethyl)sulphonyl]phenyl]-1-naphthalenesulphonamide] | –
124 to 126 | 6 | Cc1cc(NS(=O)(=O)Cc2ccccc2)cc(C)c1S(=O)(=O)C[N+](=O)[O-] [Example 26, N-[3,5-Dimethyl-4-[(nitromethyl)sulphonyl]phenyl]-phenylmethanesulphonamide] | 104
226 to 228 | – | Cc1cc(N(C(=O)CCC(N)=O)c2cc(C)c(S(=O)(=O)C[N+](=O)[O-])c(C)c2)cc(C)c1S(=O)(=O)C[N+](=O)[O-] | –
